We go through 1 compound from the NIST ThermoML archive (doi:10.1016/j.fluid.2007.07.070).

For the data set the following is noted: Crystal; DTA.

SMILES strings stand for the structures. ± gives the expanded uncertainty stated by the source.

In the case of `O=C1c2ccccc2C(=O)C1c1nc2ccccc2cc1O` [1H-indene-1,3(2H)-dione, 2-(3-hydroxy-2-quinolinyl)-], the Normal melting temperature worked out at 260.6 ± 0.5 °C.
